The record followed here is US20240368120A1 (Terns Pharmaceuticals, Inc., priority 2023, published 2024).

The target of the test is T1, human GLP-1R receptor (Homo sapiens, UniProt P43220).
T1 construct: expressed in transfected cells
In words: GLP-1R low expression cell assay (cAMP TR-FRET, CHO-K1_hGLP-1Rlow_clone10 cells). The format is cell-based. Conditions: for EC50: cAMP TR-FRET, 30 min at 25° C.; for Emax: maximum activation relative to control GLP-1 peptide agonist. The procedure: Stable cell lines expressing high and low GLP-1R surface expression were generated in CHO-K1 cells transfected (Fugene 6) with a puromycin selectable DNA plasmid encoding human GLP-1R receptor (accession number: NM_002062.5) under control of an EF1A promoter. Transfected cells were seeded into 24-well plates (9,000 cells/well) containing complete medium and incubated in a humidified incubator at 37° C. with 5% carbon dioxide. After overnight incubation, medium was replaced with complete medium supplemented with puromycin (6 μg/mL) and refreshed every 2-3 days to select for stably transfected cells. Individual pools of selected cells were expanded prior to analysis for responsiveness to GLP-1 control peptide using a TR-FRET assay to detect cAMP (LANCE Ultra CAMP Assay, Perkin Elmer). Briefly, cells were collected in Versene solution, plated in 384-well plates (1,000 cells/well) and combined with serially diluted GLP-IR control peptide (10 nL) using an acoustic dispenser (ECHO). Plates were incubated for 30 minutes at 25° C. prior to the addition of EU-CAMP tracer (5 μL) and Ulight-anti-CAMP (5 μL) reagents to each well, followed by 15 minutes incubation at 25° C. TR-FRET signal was detected using an En Vision Multimode Plate Reader (excitation=320 nm; emission=615 and 655 nm). Dose-response curves were used to generate EC50 values as a measure of responsiveness to the GLP-IR control peptide. Selected cell lines were monitored for responsiveness over multiple passages to ensure stability. […] Briefly, GLP-IR expression was analyzed by flow cytometry using a fluorescein-labeled Exendin-4 peptide fluorescent probe (FLEX). Cells were harvested in Versene solution and washed 3-times with PBS+0.5% BSA before incubation with FLEX reagent (10 μM) for 2 hours at room temperature. After incubation, cells were washed 3-times in PBS+0.5% BSA before final resuspension in PBS prior to analysis by flow cytometry to measure FLEX mean fluorescence intensity (MFI) as a measure of GLP-IR expression on the cell surface.
For compound testing in the CHO-K1_hGLP-IRlow_clone10 cell line, cells were seeded in 384-well plates (1,000 cells/well). Test compounds were serially diluted in DMSO (10-point, 3-fold dilution), added to wells using an ECHO dispenser (10 nL/well) and plates were centrifuged for 1 min and agitated for 2 min at room temperature prior to 30-minute incubation at 25° C. After incubation, Eu-CAMP (5 μL) and Ulight-anti-cAMP (5 μL) reagents were added to each well, followed by centrifugation for 1 minute, agitation for 2 minutes at room temperature, and final incubation of the plates at 25° C. for 15 minutes. Plates were read using an EnVision microplate reader (excitation=320 nm; emission=615 and 655 nm). Dose-response curves were generated from duplicate wells based on percent activation calculated relative to a control GLP-1 peptide agonist that was run in parallel. EC50 values were determined by fitting percent activation as a function of compound concentration using the Hill equation (XLfit).
The compounds tested were compound samples prepared according to the General Procedures described in the Examples section.
(In general: In TR-FRET formats the signal depends on donor and acceptor labels being close together.)

As usually defined, the EC50 is the concentration needed to bring the measured effect to its halfway point. A lower EC50 goes with an effect from little substance. As usually defined, the Emax is the size of the effect at its maximum, as opposed to the concentration needed.

T1 sequence (P43220 24-463): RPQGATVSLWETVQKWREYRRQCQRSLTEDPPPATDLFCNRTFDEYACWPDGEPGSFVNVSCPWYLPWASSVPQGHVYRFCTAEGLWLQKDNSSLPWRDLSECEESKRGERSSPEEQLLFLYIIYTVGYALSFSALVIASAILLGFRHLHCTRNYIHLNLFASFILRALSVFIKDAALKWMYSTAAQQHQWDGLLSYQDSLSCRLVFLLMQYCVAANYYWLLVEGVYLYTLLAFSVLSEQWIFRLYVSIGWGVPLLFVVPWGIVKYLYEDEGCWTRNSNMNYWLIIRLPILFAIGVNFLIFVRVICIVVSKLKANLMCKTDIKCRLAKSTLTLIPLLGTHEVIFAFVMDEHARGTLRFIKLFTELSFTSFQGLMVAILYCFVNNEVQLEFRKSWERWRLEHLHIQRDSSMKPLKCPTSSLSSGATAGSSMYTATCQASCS

`CCOc1cc(-c2nc(=O)o[nH]2)cc2c1nc(CN1CCC(c3cccc(OCc4ccc(C#N)cc4F)n3)CC1)n2C` [Compound 260, 4-(((6-(1-((4-ethoxy-1-methyl-6-(5-oxo-2,5-dihydro-1,2,4-oxadiazol-3-yl)-1H-benzo[d]imidazol-2-yl)methyl)piperidin-4-yl)pyridin-2-yl)oxy)methyl)-3-fluorobenzonitrile]: the 50% effective concentration (EC50) lay in the range of 10 to 100 nM and the maximal effect (Emax) was above 85%.
In the same order, the values of `COc1cc(C(=O)O)cc2c1nc([C@H](C)N1CCC(c3cccc(OCc4ccc(C#N)cc4F)n3)CC1)n2C[C@@H]1CCO1` [Compound 95, 2-((S)-1-(4-(6-((4-Cyano-2-fluorobenzyl)oxy)pyridin-2-yl)piperidin-1-yl)ethyl)-4-methoxy-1-(((S)-oxetan-2-yl)methyl)-1H-benzo[d]imidazole-6-carboxylic acid] are below 10 nM and above 85%.
Regarding `COCCOCCOCCOCCOCCOc1cc(C(=O)O)cc2c1nc(CN1CCC(c3cccc4c3O[C@](C)(c3ccc(Cl)cn3)O4)CC1)n2Cc1cncs1` [Compound 5, (R)-4-((2,5,8,11,14-pentaoxahexadecan-16-yl)oxy)-2-((4-(2-(5-chloropyridin-2-yl)-2-methylbenzo[d][1,3]dioxol-4-yl)piperidin-1-yl)methyl)-1-(thiazol-5-ylmethyl)-1H-benzo[d]imidazole-6-carboxylic acid], the EC50 was above 1000 nM and the maximal response (Emax) was below 25%.
In the same order, the values of `Cn1c(CN2CCC(c3cccc(OCc4ccc(Cl)cc4F)n3)CC2)nc2c(NCCF)cc(C(=O)O)cc21` [Compound 186, 2-((4-(6-((4-Chloro-2-fluorobenzyl)oxy)pyridin-2-yl)piperidin-1-yl)methyl)-4-((2-fluoroethyl)amino)-1-methyl-1H-benzo[d]imidazole-6-carboxylic acid] are 100 to 1000 nM and above 85%.
In the same order, the values of `COc1cc(C(=O)O)cc2c1nc(CN1CCC(c3cccc4c3O[C@H](c3ccc(C#N)cc3F)CO4)CC1)n2C` [Compound 310, (R)-2-((4-(3-(4-cyano-2-fluorophenyl)-2,3-dihydrobenzo[b][1,4]dioxin-5-yl)piperidin-1-yl)methyl)-4-methoxy-1-methyl-1H-benzo[d]imidazole-6-carboxylic acid] are 10 to 100 nM and above 85%.
In the same order, the values of `Cn1c(CN2CCC(c3cccc(OCc4ccc(Cl)cc4F)n3)CC2)nc2c(OCC(F)F)cc(C(=O)O)cc21` [Compound 169, 2-((4-(6-((4-Chloro-2-fluorobenzyl)oxy)pyridin-2-yl)piperidin-1-yl)methyl)-4-(2,2-difluoroethoxy)-1-methyl-1H-benzo[d]imidazole-6-carboxylic acid] are below 10 nM and above 85%.
`CO/N=C/c1ccc(COc2cccc(C3CCN(Cc4nc5c(OC)cc(C(=O)O)cc5n4C[C@@H]4CCO4)CC3)n2)c(F)c1` [Compound 9, (S)-2-((4-(6-((2-Fluoro-4-((methoxyimino)methyl)benzyl)oxy)pyridin-2-yl)piperidin-1-yl)methyl)-4-methoxy-1-(oxetan-2-ylmethyl)-1H-benzo[d]imidazole-6-carboxylic acid] registered an EC50 below 10 nM and a maximum response (Emax) above 85%.
The corresponding values for `COc1cc(C(=O)O)cc2c1nc(Cc1cc(F)c(-c3cccc(OCc4ccc(Cl)cc4F)n3)cc1F)n2C` [Compound 282, 2-(4-(6-((4-Chloro-2-fluorobenzyl)oxy)pyridin-2-yl)-2,5-difluorobenzyl)-4-methoxy-1-methyl-1H-benzo[d]imidazole-6-carboxylic acid] are below 10 nM and above 85%.
In the same order, the values of `Cn1c(Cc2cc(F)c(-c3cccc(OCc4ccc(Cl)cc4F)n3)cc2F)nc2c(OC(F)F)cc(C(=O)O)cc21` [Compound 197, 2-(4-(6-((4-Chloro-2-fluorobenzyl)oxy)pyridin-2-yl)-2,5-difluorobenzyl)-4-(difluoromethoxy)-1-methyl-1H-benzo[d]imidazole-6-carboxylic acid] are below 10 nM and above 85%.
In the same order, the values of `Cn1c(CN2CCC(c3cccc(CCc4ccc(Cl)cc4)n3)CC2)nc2c(OC(F)F)cc(C(=O)O)cc21` [Compound 219, 2-((4-(6-(4-chlorophenethyl)pyridin-2-yl)piperidin-1-yl)methyl)-4-(difluoromethoxy)-1-methyl-1H-benzo[d]imidazole-6-carboxylic acid] are above 1000 nM and 25 to 50%.
With `Cn1c(CN2CCC(c3cccc(OCc4ccc(C#N)cc4F)n3)CC2)nc2c3c(c(C(=O)O)cc21)OCCO3` [Compound 289, 2-((4-(6-((4-Cyano-2-fluorobenzyl)oxy)pyridin-2-yl)piperidin-1-yl)methyl)-3-methyl-7,8-dihydro-3H-[1,4]dioxino[2′,3′:3,4]benzo[1,2-d]imidazole-5-carboxylic acid], the half-maximal effective concentration (EC50) is 100 to 1000 nM and the maximal response (Emax) was above 85%.
In turn, `COCCOCCOCCOCCOCCOc1cc(C(=O)O)cc2c1nc(CN1CCC(c3cccc4c3O[C@@](C)(c3ccc(Cl)cn3)O4)CC1)n2Cc1cncs1` [Compound 4, (S)-4-((2,5,8,11,14-pentaoxahexadecan-16-yl)oxy)-2-((4-(2-(5-chloropyridin-2-yl)-2-methylbenzo[d][1,3]dioxol-4-yl)piperidin-1-yl)methyl)-1-(thiazol-5-ylmethyl)-1H-benzo[d]imidazole-6-carboxylic acid] came in with an EC50 below 10 nM and a maximal response (Emax) above 85%.
`COc1cc(C(=O)O)cc2c1nc(CN1CCC(c3cccc4c3O[C@@H](c3ccc(C#N)cc3F)CO4)CC1)n2Cc1cncs1` [Compound 63, (S)-2-((4-(3-(4-cyano-2-fluorophenyl)-2,3-dihydrobenzo[b][1,4]dioxin-5-yl)piperidin-1-yl)methyl)-4-methoxy-1-(thiazol-5-ylmethyl)-1H-benzo[d]imidazole-6-carboxylic acid] displayed a concentration for a half-maximal effect (EC50) below 10 nM.
In turn, `Cn1c(CN2CCC(c3cccc(OCc4ccc(Cl)cc4F)n3)CC2)nc2c(OCC3CC3)cc(C(=O)O)cc21` [Compound 357, 2-((4-(6-((4-Chloro-2-fluorobenzyl)oxy)pyridin-2-yl)piperidin-1-yl)methyl)-4-(cyclopropylmethoxy)-1-methyl-1H-benzo[d]imidazole-6-carboxylic acid] gave an EC50 below 10 nM and an Emax above 85%.
In turn, `COc1cc(C(=O)O)cc2c1nc(N(C)[C@H]1CC[C@H](c3cccc(OCc4ccc(Cl)cc4F)n3)CC1)n2C` [Compound 363, 2-(((1r,4r)-4-(6-((4-Chloro-2-fluorobenzyl)oxy)pyridin-2-yl)cyclohexyl)(methyl)amino)-4-methoxy-1-methyl-1H-benzo[d]imidazole-6-carboxylic acid] yielded an EC50 below 10 nM and a maximal response (Emax) above 85%.
`Cn1c(CN2CCC(c3cccc(OCc4ccc(Cl)cc4F)n3)CC2)nc2c(OC(F)F)cc(-c3nsc(=O)[nH]3)cc21` [Compound 370, 3-(2-((4-(6-((4-Chloro-2-fluorobenzyl)oxy)pyridin-2-yl)piperidin-1-yl)methyl)-4-(difluoromethoxy)-1-methyl-1H-benzo[d]imidazol-6-yl)-1,2,4-thiadiazol-5 (4H)-one] registered an EC50 of 100 to 1000 nM and an Emax above 85%.
